Publication PMC7156412, “Inhibition of the deubiquitinase USP10 induces degradation of SYK” (British Journal of Cancer, 2020)

Experiments:
USP10 = settings: cited from earlier work
SYK [1] = test: Immunoblot of SYK protein levels in Ba/F3-FLT3-ITD cells; type: cell-based, murine; settings: 24 h of treatment
Method: (§1) Protein lysate preparation, immunoblotting and immunoprecipitation were carried out as previously described.[21]

FLT3 [2] = test: Immunoblot of FLT3 protein levels in Ba/F3-FLT3-ITD cells; type: cell-based, murine; settings: for Induction of FLT3 degradation: Ba/F3-FLT3-ITD cells, 24 hr, 10-20 µM; for FLT3 protein levels: all treated oncogenic FLT3-expressing cells, 24 h
Method: as §1

FLT3 [3] = test: Immunoblot of FLT3 in Ba/F3-FLT3-ITD+TKD point mutant cells; type: cell-based, murine; settings: Ba/F3-FLT3-ITD+TKD point mutant cells (A627T, F691L, G697R, F691I), 24 hr, 5-10 µM
Method: as §1

SYK [4] = test: Immunoblot of SYK in Ba/F3-FLT3-ITD+TKD point mutant cells; type: cell-based, murine; settings: Ba/F3-FLT3-ITD+TKD point mutant cells (A627T, F691L, G697R, F691I), 24 hr, 5-10 µM
Method: as §1

SYK [5] = test: Immunoblot of SYK protein levels in MV4-11 cells; type: cell-based; settings: 24 h of treatment
Method: as §1

USP7 = settings: cited from earlier work
SYK [6] = test: Immunoblot of SYK protein levels in PBMCs from normal donors; type: cell-based; settings: 24 h of treatment
Method: as §1

Ba/F3-FLT3-ITD cells = tested on: Ba/F3-FLT3-ITD cells; parameters: method as in PMID 28967922; settings: cited from earlier work
[7] = tested on: FLT3-ITD-positive MOLM14 cells; parameters: method as in PMID 28967922; settings: cited from earlier work

Sequence of SYK (P48025 whole entry): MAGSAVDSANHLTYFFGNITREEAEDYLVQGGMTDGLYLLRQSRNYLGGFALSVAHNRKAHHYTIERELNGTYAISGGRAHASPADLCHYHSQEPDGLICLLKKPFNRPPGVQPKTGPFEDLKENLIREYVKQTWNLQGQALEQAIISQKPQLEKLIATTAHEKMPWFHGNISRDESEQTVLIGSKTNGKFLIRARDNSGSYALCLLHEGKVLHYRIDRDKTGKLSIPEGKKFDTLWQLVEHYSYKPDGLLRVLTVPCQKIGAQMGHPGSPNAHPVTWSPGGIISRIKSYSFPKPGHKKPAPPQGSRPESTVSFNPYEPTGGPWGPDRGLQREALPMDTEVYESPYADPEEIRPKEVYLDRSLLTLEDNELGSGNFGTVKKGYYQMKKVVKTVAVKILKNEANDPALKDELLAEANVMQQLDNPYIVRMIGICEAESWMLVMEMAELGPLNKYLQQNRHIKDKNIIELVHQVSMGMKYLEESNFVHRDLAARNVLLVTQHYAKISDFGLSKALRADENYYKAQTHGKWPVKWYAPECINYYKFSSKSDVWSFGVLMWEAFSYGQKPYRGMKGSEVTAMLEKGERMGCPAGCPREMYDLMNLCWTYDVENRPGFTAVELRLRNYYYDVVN

Compound	USP10 inhibitory activity in biochemical assay (USP10; Ub-AMC as substrate, as previously determined)	Effect on SYK protein levels (SYK [1])	Induction of FLT3 degradation (FLT3 [2])	Effect on FLT3 protein levels (FLT3 [3])	Effect on SYK protein levels (SYK [4])	Inhibition of USP10 activity (USP10)	Effect on SYK protein levels (SYK [5])	FLT3 protein levels (FLT3 [2])	Inhibition of USP7 activity (USP7)	Effect on SYK protein levels (SYK [6])	Combination effect with crenolanib or midostaurin (Ba/F3-FLT3-ITD cells)	Combination effect with crenolanib or midostaurin [7]
CCCN(CCC)CCCNC(=O)c1ccc2c(Cl)c3c(nc2c1)CCCC3 [C598-0466]	showing activity against USP10	strongly inducing degradation of SYK protein	Induction of FLT3 degradation	–	–	–	–	–	–	–	–	–
CC(=O)c1cc([N+](=O)[O-])c(Sc2ccc(F)cc2F)s1 [P22077]	–	downregulated	Induction of FLT3 degradation	induces degradation of SYK and FLT3	induces degradation of SYK and FLT3	inhibit the activity	downregulated	lower	inhibit the activity	loss of SYK protein	–	–
HBX19818	–	downregulated	Induction of FLT3 degradation	–	–	inhibit the activity	downregulated	lower	inhibit the activity	loss of SYK protein	synergistic effects	synergistic effects
